The values below come from PubChem BioAssay AID256 (DTP/NCI, 2004).

In the experiment the test system is CD2F1 mice, L1210 leukemia ip, survival T/C. Nature of the experiment: NCI In Vivo Anticancer Drug Screen. Data for tumor model L1210 Leukemia (intraperitoneal) in CD2F1 (CDF1) mice. Conditions: higher = longer survival. Summed up:
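Compound-dosed mice with transplantable tumor versus matched vehicle controls; endpoint ratio T/C reported.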

The mark [1] stands for this setting: endpoint: mean survival time, dose: 25.0 mg/kg/injection, schedule: Q04DX003 (ip), vehicle: saline.
Where [2] appears, read: endpoint: mean survival time, dose: 50.0 mg/kg/injection, schedule: Q04DX003 (ip), vehicle: saline.
The mark [3] stands for this setting: endpoint: mean survival time, dose: 100.0 mg/kg/injection, schedule: Q04DX003 (ip), vehicle: saline.
The mark [4] stands for this setting: endpoint: mean survival time, dose: 50.0 mg/kg/injection, schedule: Q01DX009 (ip), vehicle: saline with Tween-80.
[5] abbreviates: endpoint: mean survival time, dose: 25.0 mg/kg/injection, schedule: Q04DX002 (ip), vehicle: saline with Tween-80.
The mark [6] stands for this setting: endpoint: mean survival time, dose: 50.0 mg/kg/injection, schedule: Q04DX002 (ip), vehicle: saline with Tween-80.
Where [7] appears, read: endpoint: mean survival time, dose: 100.0 mg/kg/injection, schedule: Q04DX002 (ip), vehicle: saline with Tween-80.
The mark [8] stands for this setting: endpoint: mean survival time, dose: 200.0 mg/kg/injection, schedule: Q04DX002 (ip), vehicle: saline with Tween-80.
Setting [9] is: endpoint: mean survival time, dose: 100.0 mg/kg/injection, schedule: Q01DX009 (ip), vehicle: saline with Tween-80.
Where [10] appears, read: endpoint: mean survival time, dose: 200.0 mg/kg/injection, schedule: Q01DX009 (ip), vehicle: saline with Tween-80.
The mark [11] stands for this setting: endpoint: mean survival time, dose: 100.0 mg/kg/injection, schedule: Q01DX001 (ip), vehicle: Klucel (hydroxypropylcellulose) (HPC).

Where “and” joins values, the source holds several entries; their conditions need not be identical. Equal entries are not always repeated. Inconclusive results and toxic doses are left out.

Turning to `CSc1nc(NN)c2cnn(C3OC(CO)C(O)C3O)c2n1` (configuration not stated), the T/C (endpoint: median survival time, dose: 11.3 mg/kg/injection, schedule: Q01DX005 (ip), vehicle: saline with Tween-80) was 107 % of control; the T/C (endpoint: median survival time, dose: 22.5 mg/kg/injection, schedule: Q01DX005 (ip), vehicle: saline with Tween-80) is 104 % of control; the T/C (endpoint: median survival time, dose: 45.0 mg/kg/injection, schedule: Q01DX005 (ip), vehicle: saline with Tween-80) is 102 % of control; the T/C (endpoint: median survival time, dose: 90.0 mg/kg/injection, schedule: Q01DX005 (ip), vehicle: saline with Tween-80) was 105 % of control.
On to `COc1cc2c(cc1O)CCCCC2`, for which the T/C was 100 % of control (endpoint: mean survival time, dose: 50.0 mg/kg/injection, schedule: Q01DX009 (ip), vehicle: other); 103 % of control (endpoint: mean survival time, dose: 100.0 mg/kg/injection, schedule: Q01DX009 (ip), vehicle: other); 92 % of control (endpoint: mean survival time, dose: 200.0 mg/kg/injection, schedule: Q01DX009 (ip), vehicle: other).
For the compound `COC12CCCC1S(=O)(=O)C2` (configuration not stated), the T/C is 101 % of control under setting [1], 108 % of control under setting [2] and 95 % of control under setting [3].
`Nc1nc2c(ncn2-c2ccc(OCCNC(=O)Nc3cc(S(=O)(=O)F)ccc3Cl)cc2)c(=O)[nH]1` (tested in a mixture with another compound): the T/C (endpoint: mean survival time, dose: 75.0 mg/kg/injection, schedule: Q01DX001 (ip), vehicle: saline with Tween-80) was 92 % of control and the T/C (endpoint: mean survival time, dose: 150.0 mg/kg/injection, schedule: Q01DX001 (ip), vehicle: saline with Tween-80) is 95 % of control.
As for `S=C=NCCc1ccccc1`, the T/C is, setting by setting: (endpoint: mean survival time, dose: 3.12 mg/kg/injection, schedule: Q01DX009 (ip), vehicle: saline with Tween-80) 93 % of control; (endpoint: mean survival time, dose: 6.25 mg/kg/injection, schedule: Q01DX009 (ip), vehicle: saline with Tween-80) 92 % of control; (endpoint: mean survival time, dose: 12.5 mg/kg/injection, schedule: Q01DX009 (ip), vehicle: saline with Tween-80) 106 % of control; (endpoint: mean survival time, dose: 25.0 mg/kg/injection, schedule: Q01DX009 (ip), vehicle: saline with Tween-80) 104 % of control; under setting [4], 106 % of control.
Turning to `COc1cc(C)c(Br)c(OC)c1`, the T/C by setting is: (endpoint: mean survival time, dose: 100.0 mg/kg/injection, schedule: Q04DX003 (ip), vehicle: saline with Tween-80) 92 % of control; (endpoint: mean survival time, dose: 200.0 mg/kg/injection, schedule: Q04DX003 (ip), vehicle: saline with Tween-80) 99 % of control; (endpoint: mean survival time, dose: 400.0 mg/kg/injection, schedule: Q04DX003 (ip), vehicle: saline with Tween-80) 99 % of control.
Consider `O=C(C#Cc1ccccc1)N1CCCCC1`, for which the T/C was 99 % of control under setting [5], 99 % of control under setting [6], 101 % of control under setting [7] and 92 % of control under setting [8].
Regarding `COC(=O)C(C)S(=O)(=O)O` (configuration not stated), the T/C is, setting by setting: (endpoint: mean survival time, dose: 100.0 mg/kg/injection, schedule: Q04DX002 (ip), vehicle: saline) 106 % of control; (endpoint: mean survival time, dose: 200.0 mg/kg/injection, schedule: Q04DX002 (ip), vehicle: saline) 106 % of control; (endpoint: mean survival time, dose: 400.0 mg/kg/injection, schedule: Q04DX002 (ip), vehicle: saline) 95 % of control.
On to `O=NN(CCF)C(=O)NC1C(O)CCCC1O` (configuration not stated), for which the T/C is 120 % of control (endpoint: median survival time, dose: 1.25 mg/kg/injection, schedule: Q01DX001 (ip), vehicle: saline); 116 % of control (endpoint: median survival time, dose: 2.5 mg/kg/injection, schedule: Q01DX001 (ip), vehicle: saline); 160 % of control (endpoint: median survival time, dose: 5.0 mg/kg/injection, schedule: Q01DX001 (ip), vehicle: saline); 178 % of control (endpoint: median survival time, dose: 5.0 mg/kg/injection, schedule: Q04DX002 (ip), vehicle: saline); 168 % of control (endpoint: median survival time, dose: 10.0 mg/kg/injection, schedule: Q01DX001 (ip), vehicle: saline); 231 % of control and 232 % of control (endpoint: median survival time, dose: 10.0 mg/kg/injection, schedule: Q04DX002 (ip), vehicle: saline). Also, the T/C reads like this: (endpoint: median survival time, dose: 20.0 mg/kg/injection, schedule: Q01DX001 (ip), vehicle: saline) 337 % of control; (endpoint: median survival time, dose: 20.0 mg/kg/injection, schedule: Q04DX002 (ip), vehicle: saline) 361 % of control and 365 % of control; (endpoint: median survival time, dose: 40.0 mg/kg/injection, schedule: Q01DX001 (ip), vehicle: saline) 337 % of control; (endpoint: median survival time, dose: 40.0 mg/kg/injection, schedule: Q04DX002 (ip), vehicle: saline) 182 % of control and 361 % of control.
For `Cc1cccc[n+]1CC(=O)c1ccccc1`, the T/C reads like this: under setting [1], 104 % of control; under setting [2], 96 % of control; under setting [3], 96 % of control.
Turning to `C=CCN(C)N=Nc1ccc(C(N)=O)cc1`, the T/C is, setting by setting: (endpoint: mean survival time, dose: 18.75 mg/kg/injection, schedule: Q01DX009 (ip), vehicle: Klucel (hydroxypropylcellulose) (HPC)) 106 % of control; (endpoint: mean survival time, dose: 37.5 mg/kg/injection, schedule: Q01DX009 (ip), vehicle: Klucel (hydroxypropylcellulose) (HPC)) 115 % of control; (endpoint: mean survival time, dose: 150.0 mg/kg/injection, schedule: Q01DX009 (ip), vehicle: Klucel (hydroxypropylcellulose) (HPC)) 156 % of control; (endpoint: mean survival time, dose: 300.0 mg/kg/injection, schedule: Q01DX009 (ip), vehicle: Klucel (hydroxypropylcellulose) (HPC)) 92 % of control.
As to `FC(F)(F)C(Cl)Br` (configuration not stated), the T/C is, setting by setting: under setting [9], 98 % of control; (endpoint: mean survival time, dose: 100.0 mg/kg/injection, schedule: Q01DX009 (ip), vehicle: saline) 97 % of control; under setting [10], 96 % of control; (endpoint: mean survival time, dose: 200.0 mg/kg/injection, schedule: Q01DX009 (ip), vehicle: saline) 98 % of control; (endpoint: mean survival time, dose: 400.0 mg/kg/injection, schedule: Q01DX009 (ip), vehicle: saline with Tween-80) 95 % of control; (endpoint: mean survival time, dose: 400.0 mg/kg/injection, schedule: Q01DX009 (ip), vehicle: saline) 103 % of control.
For the compound `CC(=O)N(C)c1ccc(NC(=O)Nc2ccc(Cl)cc2C)cc1`, the T/C is 91 % of control under setting [4], 88 % of control under setting [9] and 91 % of control under setting [10].
As to `CCCCCCCCCCCCCCCC(CCCC)CCCCCC` (configuration not stated), the T/C was 108 % of control (endpoint: mean survival time, dose: 100.0 mg/kg/injection, schedule: Q01DX001 (ip), vehicle: saline sonified); 98 % of control (endpoint: mean survival time, dose: 200.0 mg/kg/injection, schedule: Q01DX001 (ip), vehicle: saline sonified); 104 % of control (endpoint: mean survival time, dose: 400.0 mg/kg/injection, schedule: Q01DX001 (ip), vehicle: saline sonified).
Take `O=C(N/N=C/c1ccccc1O)c1ccccc1`: the T/C under setting [11] is 112 % of control; the T/C (endpoint: mean survival time, dose: 100.0 mg/kg/injection, schedule: Q01DX009 (ip), vehicle: Klucel (hydroxypropylcellulose) (HPC)) was 94 % of control; the T/C (endpoint: mean survival time, dose: 200.0 mg/kg/injection, schedule: Q01DX001 (ip), vehicle: Klucel (hydroxypropylcellulose) (HPC)) is 105 % of control; the T/C (endpoint: mean survival time, dose: 200.0 mg/kg/injection, schedule: Q01DX009 (ip), vehicle: Klucel (hydroxypropylcellulose) (HPC)) was 104 % of control; the T/C (endpoint: mean survival time, dose: 400.0 mg/kg/injection, schedule: Q01DX001 (ip), vehicle: Klucel (hydroxypropylcellulose) (HPC)) is 95 % of control; the T/C (endpoint: mean survival time, dose: 400.0 mg/kg/injection, schedule: Q01DX009 (ip), vehicle: Klucel (hydroxypropylcellulose) (HPC)) was 102 % of control.
Regarding `CCOP(=S)(OCC)OP(=S)(OCC)OCC`, the T/C (endpoint: mean survival time, dose: 4.0 mg/kg/injection, schedule: Q04DX003 (ip), vehicle: other) is 95 % of control.
With `[Cl][Pd][Cl]`, the T/C was 95 % of control (endpoint: mean survival time, dose: 12.5 mg/kg/injection, schedule: Q01DX009 (ip), vehicle: saline sonified); 107 % of control (endpoint: mean survival time, dose: 12.5 mg/kg/injection, schedule: Q04DX003 (ip), vehicle: saline with Tween-80); 103 % of control (endpoint: mean survival time, dose: 25.0 mg/kg/injection, schedule: Q04DX003 (ip), vehicle: saline with Tween-80); 91 % of control (endpoint: mean survival time, dose: 50.0 mg/kg/injection, schedule: Q04DX003 (ip), vehicle: saline with Tween-80).
As for `CC(C)(C)CC(C)(C)c1ccc(OCCOC(=O)c2ccccc2C(=O)O)cc1`, the T/C under setting [11] is 90 % of control.
On to `C[n+]1nc(-c2ccccc2)oc1-c1ccccc1`, for which the T/C reads like this: under setting [5], 100 % of control; under setting [6], 100 % of control; under setting [7], 108 % of control; under setting [8], 106 % of control.
